Test results reported in the supplement of paper PMC7017272.
± gives the standard deviation of the averaged measurements.

Key:
[1] = tested on: UT-SCC-8; experiment: relative IC50 (midpoint of the fitted curve; maximal inhibition may be below 50%); higher = less potent; settings: treatment time: 3 days
How it was run: (§1)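 Viability of HPV-negative HNSCC cell lines was measured by CellTiter-Glo 2.0 luminescence. Cells were seeded at 500 cells/well in 384-well plates on plastic, on Matrigel- or Myogel-coated wells (500 µg/mL), or embedded in Matrigel or Myogel plus rat collagen I, then given compounds at five 10-fold concentrations for 3 days, with signals normalised to vehicle (0.1% DMSO) and cell-killing control wells. Fitting of percent-inhibition dose–response curves in the FIMM pipeline yielded IC50, maximal inhibition and drug sensitivity score.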

[2] = tested on: UT-SCC-73; experiment: as above; settings: treatment time: 3 days
How it was run: as §1

[3] = tested on: UT-SCC-40; experiment: as above; settings: treatment time: 3 days
How it was run: as §1

[4] = tested on: UT-SCC-28; experiment: as above; settings: culture condition: plastic 2D (no matrix); treatment time: 3 days
How it was run: as §1

[5] = tested on: UT-SCC-42A; experiment: as above; settings: treatment time: 3 days
How it was run: as §1

[6] = tested on: UT-SCC-81; experiment: as above; settings: treatment time: 3 days
How it was run: as §1

[7] = tested on: UT-SCC-106A; experiment: as above; settings: treatment time: 3 days
How it was run: as §1

[8] = tested on: UT-SCC-24B; experiment: as above; settings: treatment time: 3 days
How it was run: as §1

[9] = tested on: UT-SCC-42B; experiment: as above; settings: treatment time: 3 days
How it was run: as §1

[10] = tested on: UT-SCC-44; experiment: as above; settings: treatment time: 3 days
How it was run: as §1

[11] = tested on: UT-SCC-14; experiment: as above; settings: treatment time: 3 days
How it was run: as §1

[12] = tested on: UT-SCC-8; experiment: maximal % inhibition of viability relative to DMSO; higher = stronger effect; settings: treatment time: 3 days
How it was run: as §1

[13] = tested on: UT-SCC-73; experiment: as above; settings: treatment time: 3 days
How it was run: as §1

[14] = tested on: UT-SCC-40; experiment: as above; settings: treatment time: 3 days
How it was run: as §1

[15] = tested on: UT-SCC-28; experiment: as above; settings: treatment time: 3 days
How it was run: as §1

[16] = tested on: UT-SCC-42A; experiment: as above; settings: treatment time: 3 days
How it was run: as §1

[17] = tested on: UT-SCC-106A; experiment: as above; settings: treatment time: 3 days
How it was run: as §1

[18] = tested on: UT-SCC-24B; experiment: as above; settings: treatment time: 3 days
How it was run: as §1

[19] = tested on: UT-SCC-44; experiment: as above; settings: treatment time: 3 days
How it was run: as §1

[20] = culture condition: embedded in Matrigel
[21] = culture condition: on top of Myogel
[22] = culture condition: plastic 2D (no matrix)
[23] = culture condition: embedded in Myogel + collagen I
[24] = culture condition: on top of Matrigel

Structure (SMILES): CO[C@H]1C[C@@H]2CC[C@@H](C)[C@@](O)(O2)C(=O)C(=O)N2CCCC[C@H]2C(=O)O[C@H]([C@H](C)C[C@@H]2CC[C@@H](OC(=O)C(C)(CO)CO)[C@H](OC)C2)CC(=O)[C@H](C)/C=C(\C)[C@@H](O)[C@@H](OC)C(=O)[C@H](C)C[C@H](C)/C=C/C=C/C=C/1C [Temsirolimus]
- relative IC50 [1, 20]: 0.997 nM
- relative IC50 [1, 21]: 0.785 nM
- relative IC50 [1, 22]: 0.669 nM
- relative IC50 [2, 23]: 0.997 nM
- relative IC50 [2, 24]: 0.383 nM
- relative IC50 [2, 22]: 1.06 nM
- relative IC50 [3, 23]: 2.84 nM
- relative IC50 [3, 24]: 0.896 nM
- relative IC50 [4]: 0.519 nM
- relative IC50 [5, 20]: 5.49 nM
- relative IC50 [5, 21]: 2.26 nM
- relative IC50 [5, 22]: 7.63 nM
- relative IC50 [6, 24]: 1.13 nM
- relative IC50 [6, 21]: 0.543 nM
- relative IC50 [6, 22]: 0.857 nM
- relative IC50 [7, 24]: 3.18 nM
- relative IC50 [7, 21]: 4.08 nM
- relative IC50 [7, 22]: 1.95 nM
- relative IC50 [8, 21]: 1 nM
- relative IC50 [9, 21]: > 98.9 nM
- relative IC50 [10, 24]: 0.711 nM
- relative IC50 [10, 22]: 0.691 nM
- relative IC50 [11, 20]: 0.458 nM
- relative IC50 [11, 23]: 0.654 nM
- relative IC50 [11, 24]: 0.765 nM
- relative IC50 [11, 21]: 0.33 nM
- relative IC50 [11, 22]: 0.458 nM
- maximal % inhibition of viability [12, 20]: 41.8 ± 4.6%
- maximal % inhibition of viability [12, 23]: 31.4 ± 11%
- maximal % inhibition of viability [12, 24]: 38.9 ± 9.9%
- maximal % inhibition of viability [12, 21]: 48.1 ± 8.7%
- maximal % inhibition of viability [12, 22]: 42.3 ± 5.6%
- maximal % inhibition of viability [13, 20]: 32 ± 6.7%
- maximal % inhibition of viability [13, 23]: 38.7 ± 21%
- maximal % inhibition of viability [13, 24]: 29.7 ± 3.1%
- maximal % inhibition of viability [13, 21]: 34.5 ± 1.6%
- maximal % inhibition of viability [13, 22]: 24 ± 6.6%
- maximal % inhibition of viability [14, 20]: 33.9 ± 13%
- maximal % inhibition of viability [14, 23]: 40.5 ± 20%
- maximal % inhibition of viability [14, 24]: 24.6 ± 6.1%
- maximal % inhibition of viability [14, 21]: 21.9 ± 3.2%
- maximal % inhibition of viability [14, 22]: 22.1 ± 2.3%
- maximal % inhibition of viability [15, 20]: 29.7 ± 9.9%
- maximal % inhibition of viability [15, 23]: 37.2 ± 7.1%
- maximal % inhibition of viability [15, 24]: 38 ± 2.7%
- maximal % inhibition of viability [15, 22]: 35.3 ± 4.3%
- maximal % inhibition of viability [16, 20]: 35 ± 6.8%
- maximal % inhibition of viability [16, 23]: 39.1 ± 4.7%
- maximal % inhibition of viability [16, 24]: 41 ± 2.4%
- maximal % inhibition of viability [16, 21]: 37.4 ± 3.1%
- maximal % inhibition of viability [16, 22]: 39.6 ± 2.3%
- maximal % inhibition of viability [17, 20]: 36.2 ± 2.6%
- maximal % inhibition of viability [17, 23]: 33.9 ± 5.5%
- maximal % inhibition of viability [17, 24]: 36.4 ± 0.4%
- maximal % inhibition of viability [17, 21]: 25.1 ± 1.4%
- maximal % inhibition of viability [17, 22]: 39.8 ± 5%
- maximal % inhibition of viability [18, 20]: 25.8 ± 7.9%
- maximal % inhibition of viability [18, 23]: 42.2 ± 4%
- maximal % inhibition of viability [18, 24]: 27.4 ± 4.7%
- maximal % inhibition of viability [18, 21]: 32.7 ± 1.8%
- maximal % inhibition of viability [18, 22]: 29.7 ± 5.7%
- maximal % inhibition of viability [19, 20]: 29.4 ± 1.9%
- maximal % inhibition of viability [19, 23]: 38.9 ± 6.9%
- maximal % inhibition of viability [19, 24]: 38.4 ± 1.5%
- maximal % inhibition of viability [19, 21]: 38.6 ± 4%
- maximal % inhibition of viability [19, 22]: 35 ± 1.3%

Structure (SMILES): CC(=O)Nc1cccc(-n2c(=O)n(C3CC3)c(=O)c3c(Nc4ccc(I)cc4F)n(C)c(=O)c(C)c32)c1 [Trametinib]
- relative IC50 [1, 20]: 11.3 nM
- relative IC50 [2, 20]: 2.42 nM
- relative IC50 [2, 21]: 3.31 nM
- relative IC50 [3, 24]: 3.55 nM
- relative IC50 [3, 21]: 4.8 nM
- relative IC50 [4]: 1.42 nM
- relative IC50 [5, 24]: 3.65 nM
- relative IC50 [6, 23]: 6.59 nM
- relative IC50 [6, 22]: 7.02 nM
- relative IC50 [7, 20]: 0.942 nM
- relative IC50 [7, 24]: 1.25 nM
- relative IC50 [7, 22]: 1.5 nM
- relative IC50 [8, 20]: 9.83 nM
- relative IC50 [8, 23]: 9.92 nM
- relative IC50 [8, 24]: 11.6 nM
- relative IC50 [8, 21]: 22.7 nM
- relative IC50 [8, 22]: 7.62 nM
- relative IC50 [9, 20]: 1.71 nM
- relative IC50 [9, 24]: 5.67 nM
- relative IC50 [9, 21]: 12.5 nM
- relative IC50 [10, 20]: 1.55 nM
- relative IC50 [10, 24]: 1.52 nM
- relative IC50 [10, 22]: 1.46 nM
- relative IC50 [11, 20]: 3.5 nM
- relative IC50 [11, 24]: 7.96 nM
- relative IC50 [11, 22]: 17.5 nM
- maximal % inhibition of viability [12, 20]: 61.3 ± 18%
- maximal % inhibition of viability [12, 23]: 24.5 ± 29%
- maximal % inhibition of viability [12, 24]: 47.3 ± 24%
- maximal % inhibition of viability [12, 21]: 41.1 ± 19%
- maximal % inhibition of viability [12, 22]: 43 ± 23%
- maximal % inhibition of viability [13, 20]: 81.2 ± 1.7%
- maximal % inhibition of viability [13, 23]: 62.8 ± 12%
- maximal % inhibition of viability [13, 24]: 76.9 ± 0.9%
- maximal % inhibition of viability [13, 21]: 63.3 ± 3.6%
- maximal % inhibition of viability [13, 22]: 70.53 ± 0.25%
- maximal % inhibition of viability [14, 20]: 78.07 ± 0.4%
- maximal % inhibition of viability [14, 23]: 61.7 ± 4.8%
- maximal % inhibition of viability [14, 24]: 71.7 ± 2.8%
- maximal % inhibition of viability [14, 21]: 51.9 ± 1.5%
- maximal % inhibition of viability [14, 22]: 52.2 ± 7.5%
- maximal % inhibition of viability [15, 20]: 36.7 ± 7.8%
- maximal % inhibition of viability [15, 23]: 29.7 ± 26%
- maximal % inhibition of viability [15, 24]: 35.1 ± 7.7%
- maximal % inhibition of viability [15, 22]: 21.1 ± 4.4%
- maximal % inhibition of viability [16, 20]: 45.4 ± 0.67%
- maximal % inhibition of viability [16, 23]: 22.1 ± 5.4%
- maximal % inhibition of viability [16, 24]: 50.3 ± 4.1%
- maximal % inhibition of viability [16, 21]: 29.4 ± 6.9%
- maximal % inhibition of viability [16, 22]: 34.7 ± 3.8%
- maximal % inhibition of viability [17, 20]: 51.5 ± 3.2%
- maximal % inhibition of viability [17, 23]: 15.1 ± 2.8%
- maximal % inhibition of viability [17, 24]: 61.8 ± 3.4%
- maximal % inhibition of viability [17, 21]: 23.2 ± 8.1%
- maximal % inhibition of viability [17, 22]: 63.5 ± 1.5%
- maximal % inhibition of viability [18, 20]: 67.1 ± 3.1%
- maximal % inhibition of viability [18, 23]: 66.5 ± 3.8%
- maximal % inhibition of viability [18, 24]: 67.53 ± 0.29%
- maximal % inhibition of viability [18, 21]: 59.1 ± 4.8%
- maximal % inhibition of viability [18, 22]: 78.8 ± 1.7%
- maximal % inhibition of viability [19, 20]: 66.8 ± 1.4%
- maximal % inhibition of viability [19, 23]: 23 ± 2.4%
- maximal % inhibition of viability [19, 24]: 46.1 ± 8.3%
- maximal % inhibition of viability [19, 21]: 28.4 ± 11%
- maximal % inhibition of viability [19, 22]: 41.1 ± 9%
